Laboratory results reported in US9073858B2, “Methods of targeted drug development” (priority 2010, dated 2015).
Entries after “also recorded” stand apart in the source; their conditions may differ. Like-named read-outs stand apart in the source and are kept apart here.

Tests used:
HT-29 cells = experiment: HT-29 Cell Proliferation Assay (MTT); assay type: cell-based; conditions: for IC50: Homo sapiens
Procedure: (§1) Cell proliferation is determined using the MTT assay. The MTT cell proliferation assay is a colorimetric assay system which measures the reduction of a tetrazolium component (MTT) into an insoluble formazan product by the mitochondria of viable cells. After incubation of the cells with the MTT reagent, DMSO is added to solubilize the colored crystals and the samples read at a wavelength of 560 nm. The amount of color produced is directly proportional to the number of viable cells.
(§2) 3-(4,5-Dimethylthiazol-2-yl)-2,5-diphenyltetrazolium Bromide (MTT) dye (Aesar, cat no. L11939) was prepared at 5 mg/ml in PBS. To each well, 20 μl of MTT solution was added to existing media and mixed thoroughly with 5 mins of gentle shaking at room temperature. Plates were incubated at 37° C., 5% CO2 for approximately 2 hrs. After 2-3 hrs incubation, media was aspirated out and plates were patted dry. […] Plates were incubated at 37° C., 5% CO2 for 10 min and mix thoroughly with 5 mins of gentle shaking at room temperature. Plates were read on the PolarStar plate reader at 560 nm. Percent (%) inhibition was calculated as 100%−(OD560 nm experimental-blank)×100%/OD560 nm control-blank. Blank=wells+serum free media+0.5% DMSO. Experimental=wells+cells+treatment+0.5% DMSO. Control=wells+cells+0.5% DMSO. IC50 values were calculated in GraphPad Prism using non-linear regression curve fitting. All statistical analyses was done either in GraphPad Prism or Microsoft Excel.
Briefly, compounds are added to cells plated in 96-well plates. […] The effect of the compounds on cell proliferation is analyzed using GraphPad Prism.
HT-29 cells are a colon cancer cell line that is utilized to assess the ability of compounds to inhibit the proliferation of cells in tumors of the colon.
For the HT-29 cell proliferation assay, on day 1, HT-29 cells are seeded at 3,000 cells/well in 100 μl media containing 10% FBS, 1× Pen-Strep, and 1× L-Glutamine in 96 well, tissue culture-treated plates. […] Working solutions of compounds were prepared (at […] in 100% DMSO). To 200 μl media, 20 μl of a 5× compound (diluted in plain media) was added for a final DMSO concentration of 0.5%. […] On day 5, plates were analyzed for cell growth using the MTT assay.

[1] = tested on: caspase 3,7 activity in A431 cells; experiment: cells; conditions: for Emax at 8 µM / Emax at 16 µM: Homo sapiens, A-431, read-out: Total Apoptosis (increase in caspase 3,7 activity as percentage of the maximal response); for Ability to Synergize with Tarceva: caspase 3,7 activity, A431 cells
Text: As described below, the capsase 3,7 assay uses the Promega Caspase-Glo 3/7 assay kit (cat no. G8092).
The Caspase-Glo® 3/7 Assay is a luminescent assay that measures caspase-3 and −7 activities in purified enzyme preparations or cultures of adherent or suspension cells. The assay provides a proluminescent caspase-3/7 substrate, which contains the tetrapeptide sequence, DEVD. This substrate is cleaved to release aminoluciferin, a substrate of luciferase used in the production of light. The Caspase-Glo® 3/7 Reagent has been optimized for caspase activity, luciferase activity and cell lysis. The addition of the single Caspase-Glo® 3/7 Reagent in an “add-mix-measure” format results in cell lysis, followed by caspase cleavage of the substrate and generation of a “glow-type” luminescent signal. The Caspase-Glo® 3/7 Assay is designed for use with multiwell plate formats, making it ideal for automated high-throughput screening of caspase activity or apoptosis.
Staurosporine was used as a positive control.
For the capsase 3,7 assay, cells were incubated for 5.5 hrs at 37° C., 5% CO2. The plate was removed from the incubator and equilibrated to room temperature. After 30 min, 25 μl Caspase 3/7 detection reagent (Promega Caspase-Glo 3/7 assay kit, cat no. G8092) was added to each well. The plate was covered with tin foil and shaken on a plate shaker at speed 4 for 3 min. The plate was then incubated for an additional 60 min at room temperature. Luminescence was detected using the PolarStar plate reader.
All statistical analyses were done using GraphPad Prism.
The assay was stopped after 6 hrs and the presence of caspase was measured using the Promega Caspase-Glo® 3/7 Assay.

A549 cells = experiment: A549 Cell Proliferation Assay (MTT); assay type: cell-based; conditions: Homo sapiens
Procedure: Cell proliferation is determined using the MTT assay. The MTT cell proliferation assay is a colorimetric assay system which measures the reduction of a tetrazolium component (MTT) into an insoluble formazan product by the mitochondria of viable cells. After incubation of the cells with the MTT reagent, DMSO is added to solubilize the colored crystals and the samples read at a wavelength of 560 nm. The amount of color produced is directly proportional to the number of viable cells. […] L11939) was prepared at 5 mg/ml in PBS. […] Plates were read on the PolarStar plate reader at 560 nm. […] IC50 values were calculated in GraphPad Prism using non-linear regression curve fitting. All statistical analyses was done either in GraphPad Prism or Microsoft Excel. […] Briefly, compounds are added to cells plated in 96-well plates. The cells are allowed to grow for 72 hours before MTT treatment. The effect of the compounds on cell proliferation is analyzed using GraphPad Prism. A549 cells are a non-small cell lung cancer cell line that have wild type EGFR and p53 but have point mutations in KRAS gene which transform it into an oncogene. […] SH30071.03, lot no. ATB31500), 1% Pen Strep (Gibco, cat no. […] On day 2, working solutions of compounds at 200× were prepared. […] Plates were incubated for 72 hours before analyzing them with MTT (as described above).

[2] = tested on: DNA fragmentation in A549 cells; experiment: DNA Fragmentation Assay (Cell Death Detection ELISA); assay type: cell-based; conditions: for induction of apoptosis in A549 cells (DNA fragmentation assay): 10 μM, FIG. 15; for activation at 1 µM / activation at 10 µM / Emax at 1 µM / Emax at 10 µM: Homo sapiens; for activation at 1 µM / activation at 10 µM: A549, 24 h, read-out: % Increase over Background; for Emax at 1 µM / Emax at 10 µM: A549, read-out: % Increase Relative to Staurosporin
H1975 cells = experiment: H1975 Cell Proliferation Assay (MTT); assay type: cell-based; conditions: Homo sapiens, NCI-H1975, 72 h, read-out: IC50 Value (μM) H1975 Cells
Procedure: as §1, §2
Briefly, compounds are added to cells plated in 96-well plates. The cells are allowed to grow for 72 hours before MTT treatment. The effect of the compounds on cell proliferation is analyzed using GraphPad Prism.

[3] = Stability on incubation with human liver microsomes (HLM); assay type: in vitro ADME; conditions: percentage left after incubation with human liver microsomes for 30 minutes
Method in brief: (§3)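 Values are percent compound remaining after 30 min incubation with mouse or human liver microsomes.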

[4] = Stability on incubation with mouse liver microsomes (MLM); assay type: in vitro ADME; conditions: for MLM % Remaining@ 30 Min: percentage left after incubation with mouse liver microsomes for 30 minutes
Method in brief: as §3

[5] = tested on: EGF receptor-mediated cell proliferation; experiment: Combinatorial studies with known EGFR inhibitors, median effect analysis (MTT assay)
Procedure: Studies were initiated to evaluate the ability of various compounds disclosed herein to synergize with several compounds known to inhibit the function of the EGF receptor in a cell proliferation assay (MTT assay).
The EGFR inhibitor and AD4 compound dilutions were then mixed 1:1 in a 96 well plate. 50 μl of the mix was then added to the cell plate.
A shifting of the inhibitor curve to the left indicates an increase in the effectiveness of the AD4-compound.

[6] = HT-29, 72 h, read-out: IC50 Value (μM) HT-29 Cells
[7] = A549, 72 h, read-out: IC50 Value (μM) A549 Cells
[8] = Combination Index with Iressa at 90% inhibition
[9] = Combination Index with Tykerb at 90% inhibition

## Cc1nc(NC(c2cc(Cl)ccc2Cl)c2ccc3cccnc3c2O)c(Cl)cc1Cl (centres unmarked) [AD4-13220]
HT-29 cells; [6]
  IC50: 3.3 µM
[1]
  Emax at 8 µM: 32%
  Emax at 16 µM: 40%
  Ability to Synergize with Tarceva: + (0.85-0.9 Slight synergism)
A549 cells; [7]
  IC50: 0.12 µM

## Oc1c(C(Nc2cc(Cl)c(Cl)cn2)c2cc(Cl)ccc2Cl)ccc2cccnc12 (centres unmarked) [AD4-13179]
HT-29 cells; [6]
  IC50: 4.1 µM
[2]
  induction of apoptosis in A549 cells (DNA fragmentation assay): induce apoptosis
H1975 cells
  IC50: 0.14 µM
A549 cells; [7]
  IC50: 0.14 µM

## Oc1c(C(Nc2ncc(F)cc2F)c2cc(Cl)cc(Cl)c2Cl)ccc2cccnc12 (centres unmarked) [AD4-13181]
[1]
  Emax at 8 µM: 43%
  Emax at 16 µM: 47%
  Ability to Synergize with Tarceva: ++ (0.7-0.85 Moderate synergism)
H1975 cells
  IC50: 0.58 µM
A549 cells; [7]
  IC50: 0.12 µM

## Cc1ccnc(NC(c2cc(Cl)cc(Cl)c2Cl)c2ccc3cccnc3c2O)c1 (centres unmarked) [AD4-13072]
[1]
  Emax at 8 µM: 38%
  Emax at 16 µM: 49%
  Ability to Synergize with Tarceva: +++ (0.3-0.7 Synergism)
H1975 cells
  IC50: 0.29 µM
A549 cells; [7]
  IC50: 0.15 µM

## CCc1cc(Cl)cnc1NC(c1cccc(Cl)c1Cl)c1ccc2cccnc2c1O (centres unmarked) [AD4-13215]
HT-29 cells; [6]
  IC50: 0.97 µM
[1]
  Emax at 8 µM: 20%
  Emax at 16 µM: 27%
  Ability to Synergize with Tarceva: ++ (0.7-0.85 Moderate synergism)
A549 cells; [7]
  IC50: 0.16 µM

## Cc1cccc(NC(c2ccc(C(F)(F)F)cc2)c2ccc3cccnc3c2O)n1 (centres unmarked) [AD4-10628]
[3]
  HLM % Remaining@ 30 Min: 45%
[4]
  MLM % Remaining@ 30 Min: 3%
[5]; [8]
  CI @ ED90: 0.91
[5]; [9]
  CI @ ED90: 0.55
[5]; based on CI value
  synergy with Tykerb: significant synergy
[5]; read-out: IC50 Iressa + Compound (nM)
  IC50: 93 nM

## Oc1c(C(Nc2ncc(C(F)(F)F)cc2F)c2ccc(Cl)cc2Cl)ccc2cccnc12 (centres unmarked) [AD4-13165]
HT-29 cells; [6]
  IC50: 5 µM
[3]
  HLM % Remaining@ 30 Min: 100%
[4]; mouse and human liver microsomes (MLM, HLM)
  stability toward liver microsome incubation: increased stability; also recorded: good stability
[4]
  MLM % Remaining@ 30 Min: 100%
[2]
  induction of apoptosis in A549 cells (DNA fragmentation assay): induce apoptosis
H1975 cells
  IC50: 0.14 µM
A549 cells; [7]
  IC50: 0.16 µM

## C#Cc1cccc(Nc2ncnc3cc(OCCOC)c(OCCOC)cc23)c1 [Tarceva, reference compound]
HT-29 cells
  HT-29 Cell Proliferation Assay Results (IC50): No Effect
HT-29 cells; HT-29, 72 h, read-out: IC50, Comparison of Incubation Times in HT-29 Cell Proliferation Assay
  IC50: 15 µM
HT-29 cells; HT-29, read-out: IC50 from dose-response curves of FIG. 11, HT-29 cells
  IC50: 12 µM
[5]
  synergy with Tykerb: did not produce synergistic effects

## Oc1c(C(Nc2cc(Cl)c(Cl)cn2)c2ccc(Cl)cc2Cl)ccc2cccnc12 (centres unmarked) [AD4-13178]
HT-29 cells; [6]
  IC50: 0.79 µM
[3]
  HLM % Remaining@ 30 Min: 100%
[4]
  MLM % Remaining@ 30 Min: 83%
[2]; Caspase, DNA Fragmentation, Annexin-V
  apoptotic activity: increased apoptotic activity
H1975 cells
  IC50: 0.19 µM
A549 cells; [7]
  IC50: 0.084 µM
A549 cells; A549, read-out: IC50, cell proliferation in A549 or H1975 cells
  IC50: ≤ 0.1 µM

## Cc1cc(Cl)cnc1NC(c1cc(Cl)ccc1Cl)c1ccc2cccnc2c1O (centres unmarked) [AD4-13137]
HT-29 cells; [6]
  IC50: 0.78 µM
[2]
  activation at 1 µM: 182%
  activation at 10 µM: 628%
  Emax at 1 µM: 18%
  Emax at 10 µM: 55%
H1975 cells
  IC50: 0.12 µM
A549 cells; [7]
  IC50: 0.16 µM

## Oc1c(C(Nc2ccc(C(F)(F)F)cn2)c2cccc(C(F)(F)F)c2)ccc2cccnc12 (centres unmarked) [AD4-13164]
[2]
  activation at 1 µM: 525%
  activation at 10 µM: 788%
  Emax at 1 µM: 39%
  Emax at 10 µM: 58%

## CCc1cc(Cl)cnc1NC(c1ccc(Cl)cc1)c1ccc2cccnc2c1O (centres unmarked) [AD4-13225]
[2]
  activation at 1 µM: 702%
  activation at 10 µM: 697%
  Emax at 1 µM: 52%
  Emax at 10 µM: 52%

## Oc1c(C(Nc2ncc(F)cc2F)c2cc(Cl)cc(Cl)c2)ccc2cccnc12 (centres unmarked) [AD4-13176]
[2]
  induction of apoptosis in A549 cells (DNA fragmentation assay): induce apoptosis

## Cc1ccc2c(C)nc(Nc3nc(-c4ccccc4C)cc(=O)[nH]3)nc2c1 [AD4-11511]
[3]
  HLM % Remaining@ 30 Min: 6%
[4]
  MLM % Remaining@ 30 Min: 6%
[5]; [8]
  CI @ ED90: 0.93
[5]; [9]
  CI @ ED90: 0.87
[5]; in combination with Tykerb
  shift in Tykerb's dose-response curve: leftward shift (i.e., greater potency)
[5]; read-out: IC50 Iressa + Compound, Iressa combined with the compound at a fixed constant ratio, MTT assay
  IC50: 245 nM
[5]; read-out: IC50 Tykerb + Compound, Tykerb combined with the compound at a fixed constant ratio, MTT assay
  IC50: 118 nM

## Cc1c(Cl)cnc(NC(c2ccc(Cl)cc2Cl)c2ccc3cccnc3c2O)c1F (centres unmarked) [AD4-13199]
HT-29 cells; [6]
  IC50: 0.75 µM
[3]
  HLM % Remaining@ 30 Min: 100%
[4]
  MLM % Remaining@ 30 Min: 63%
[2]
  activation at 1 µM: 130%
  activation at 10 µM: 492%
  Emax at 1 µM: 15%
  Emax at 10 µM: 55%
H1975 cells
  IC50: 0.16 µM
A549 cells; [7]
  IC50: 0.12 µM
